Assay results: publication PMC6271168, “Fumigant Toxicity of Oriental Sweetgum (Liquidambar orientalis) and Valerian (Valeriana wallichii) Essential Oils and Their Components, Including Their Acetylcholinesterase Inhibitory Activity, against Japanese Termites (Reticulitermes speratus)” (Molecules, 2014)
Values after ≈ are worked out from the molar mass of the structure shown.

Molecular target: T1, Japanese termite acetylcholinesterase (AChE)
T1 construct: gene AChE1; native; crude Triton X-100 extract (15,000 x g supernatant) of 50 whole adult termites, not purified
Test: modified Ellman assay, […] nm, probit analysis
Format: biochemical, Reticulitermes speratus
Details: acetylthiocholine iodide substrate; pH 7.8 extraction buffer; room temperature; 10 min pre-incubation; crude extract

## C=C/C(C)=C\CC=C(C)C [compound 6, cis-Ocimene]
  IC50: 0.131 mg/mL (≈ 962 µM)
